# Results: ChEMBL document CHEMBL1201862, “PubChem BioAssay data set” (2004)
# Active and inactive are the calls of the source.
# Tests used:
# [1] = target: T1, Fructose-bisphosphate aldolase (Mycobacterium tuberculosis, UniProt P9WQA3); test: Fluorescence-based biochemical high throughput dose response assay for inhibitors of the fructose-bisphosphate aldolase (FBA) of M. tuberculosis.; type: functional
# T1 sequence (P9WQA3 whole entry): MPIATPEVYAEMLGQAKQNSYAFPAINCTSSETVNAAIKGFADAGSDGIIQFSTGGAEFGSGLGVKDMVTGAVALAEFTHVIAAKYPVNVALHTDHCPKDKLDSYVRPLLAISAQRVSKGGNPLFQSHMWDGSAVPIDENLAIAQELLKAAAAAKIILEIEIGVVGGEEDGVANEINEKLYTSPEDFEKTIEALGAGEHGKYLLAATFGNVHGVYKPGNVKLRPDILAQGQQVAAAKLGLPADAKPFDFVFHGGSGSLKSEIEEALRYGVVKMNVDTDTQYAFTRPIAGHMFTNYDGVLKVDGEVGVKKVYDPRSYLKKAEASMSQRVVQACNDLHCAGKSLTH
# [2] = growth inhibition of yeast DHODH-expressing 3D7 parasites – SYBR Green, dry powder samples, dose response (AID 1159570); type: functional, cell-based;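 note: parasite growth measured after 72 hours of compound exposure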
# [3] = P. falciparum Dd2 growth inhibitors, dose response, SYBR Green, cherry-picked samples (AID 1159567); type: functional, cell-based
# [4] = Dd2 malaria parasite growth inhibition potency – SYBR Green, dry powder samples, dose response (AID 1159566); type: functional, cell-based;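 note: potency for growth inhibition with lower SYBR green DNA signal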
# [5] = growth inhibition of PfATP4-mutant resistant parasites – NITD609-resistant line, SYBR Green, dry powder, dose response (AID 1159571); type: functional, cell-based;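 note: parasites synchronized at ring stage by sorbitol before testing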
# [6] = cells; type: functional, cell-based
# [7] = cells; type: functional, cell-based; remark: listed apart in the source
# [8] = viability loss in THP-1 monocytes – THP-1 cells, cytotoxicity control for Vif-APOBEC3G degradation inhibitor project, dose response (AID 1117359); type: functional; conditions: THP-1
# [9] = NIH-3T3 fibroblast cytotoxicity, dose response, cytotoxicity control, cell-based, fluorescence, Alamar Blue, secondary assay (AID 2327); type: functional;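 note: NIH-3T3 mouse fibroblasts cultured with fluconazole at 8 µg/mL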
# [10] = tested on: BJ; test: BJ-TERT fibroblast viability loss – cell-based, RAS-independent, luminescence, dose response (AID 1933); type: functional; conditions: Homo sapiens
# [11] = tested on: BJ; test: cells; type: functional, cell-based; conditions: Homo sapiens
# [12] = fluconazole-exposed Candida albicans growth modulators – fluorescence, retest, confirmation (AID 2467); type: functional, cell-based
# [13] = target: Luciferin 4-monooxygenase (Photinus pyralis, UniProt P08659); test: inhibition of purified Photinus pyralis luciferase – biochemical, luminescence, dose response (AID 1891)
# [14] = Luminescence Cell-Based Dose Confirmation HTS to Identify Inhibitors of Platelet Dense Granule Release. [Related pubchem assays: 1663 (Primary HTS), 1678 (Summary of Project)]; type: functional
# [15] = tested on: BJ; test: BJ-TERT-LT-ST fibroblast viability loss – cell-based, RAS-independent, luminescence, dose response (AID 1935); type: functional; conditions: Homo sapiens;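 note: BJ fibroblasts immortalized with TERT plus LT and ST oncogenes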
# [16] = DRD fibroblast viability loss – cell-based, non-viral oncogenic, luminescence, dose response (AID 1934); type: functional; conditions: Homo sapiens
# [17] = THP-1 cell cytotoxicity, dose response, cytotoxicity control for non-replicating M. tuberculosis project (AID 489025); type: functional
# [18] = HepG2 cell cytotoxicity, dose response, cytotoxicity control for non-replicating M. tuberculosis project (AID 489018); type: functional; conditions: Mycobacterium tuberculosis
# [19] = Vero E6 cell cytotoxicity, dose response, cytotoxicity control for non-replicating M. tuberculosis project, secondary assay (AID 492998); type: functional, VeroE6; conditions: Vero C1008
# [20] = target: Heat shock protein HSP 90-alpha (Homo sapiens, UniProt P07900); type: functional, organism-based
# [21] = target: T2, Insulin-degrading enzyme (Homo sapiens, UniProt P14735); test: recombinant IDE activation, cell-free – biochemical, fluorescence polarization, counter-screen for IDE activator project, dose response (AID 588681)
# T2 sequence (P14735 whole entry): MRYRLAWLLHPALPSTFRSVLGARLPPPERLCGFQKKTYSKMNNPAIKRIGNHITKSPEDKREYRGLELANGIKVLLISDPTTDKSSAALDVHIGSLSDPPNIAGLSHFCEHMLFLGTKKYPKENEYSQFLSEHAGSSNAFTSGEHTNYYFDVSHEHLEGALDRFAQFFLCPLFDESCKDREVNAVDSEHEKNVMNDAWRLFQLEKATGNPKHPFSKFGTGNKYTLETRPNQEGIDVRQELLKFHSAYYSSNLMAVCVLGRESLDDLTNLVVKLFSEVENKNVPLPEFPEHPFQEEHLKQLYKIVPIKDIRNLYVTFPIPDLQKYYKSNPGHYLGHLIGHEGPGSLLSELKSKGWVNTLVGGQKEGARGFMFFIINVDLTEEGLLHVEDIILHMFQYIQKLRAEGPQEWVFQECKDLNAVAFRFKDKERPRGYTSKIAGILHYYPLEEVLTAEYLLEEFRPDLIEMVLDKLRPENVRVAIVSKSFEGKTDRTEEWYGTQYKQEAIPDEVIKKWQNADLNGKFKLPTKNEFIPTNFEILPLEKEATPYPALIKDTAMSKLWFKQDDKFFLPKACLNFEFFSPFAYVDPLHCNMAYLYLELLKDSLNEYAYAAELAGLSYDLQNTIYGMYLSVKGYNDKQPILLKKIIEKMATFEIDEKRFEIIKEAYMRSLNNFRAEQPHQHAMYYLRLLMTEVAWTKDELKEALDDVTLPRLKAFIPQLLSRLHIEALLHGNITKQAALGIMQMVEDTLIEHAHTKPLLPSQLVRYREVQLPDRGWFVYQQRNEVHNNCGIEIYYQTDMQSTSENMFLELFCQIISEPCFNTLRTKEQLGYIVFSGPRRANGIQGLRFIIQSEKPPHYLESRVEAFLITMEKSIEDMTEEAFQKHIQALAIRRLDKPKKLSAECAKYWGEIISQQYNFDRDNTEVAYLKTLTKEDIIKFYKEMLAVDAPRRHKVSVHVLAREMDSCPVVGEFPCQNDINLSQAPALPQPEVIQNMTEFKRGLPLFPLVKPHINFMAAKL
# [22] = target: T2, Insulin-degrading enzyme; test: cellular IDE activation of Abeta substrate cleavage – fluorescence polarization, HEK cells, dose response (AID 588439); type: functional, cell-based
# [23] = tested on: HEK293; test: membrane integrity loss in HEK cells – cell-based, fluorescence, cytotoxicity control for IDE activator project, dose response (AID 588440); type: functional; conditions: Homo sapiens;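 note: cytotoxicity by LDH release measuring loss of membrane integrity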
# [24] = tested on: HEK293; test: optical interference in Abeta FP readout, dose response, artefact control for IDE activator project, biochemical, fluorescence polarization (AID 588442); type: functional, cell-based; conditions: Homo sapiens
# [25] = target: Paired box protein Pax-8 (Homo sapiens, UniProt Q06710); test: PAX8 transcriptional activity inhibition in RMG-I – RMG-I cells, luciferase, cherry-pick, dose response (AID 687027); type: functional, cell-based;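 note: luciferase reporter driven by Pax8 target thyroperoxidase promoter measured by SteadyGlo luminescence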
# [26] = A549 cell cytotoxicity, dose response, cytotoxicity control, plate reader, cherry-pick, antagonist series (AID 743412); type: functional, cell-based
# [27] = toxicity toward HepG2 liver cells – cell-based, plate reader, cherry-pick, antagonist series, cytotoxicity control, dose response (AID 743416); type: functional
# [28] = blockers of bursicon-stimulated LGR2 cAMP reporter – cell-based, HEK293, CRE-luciferase reporter, cherry pick, set 2, dose response (AID 743343); type: functional;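 note: transfected cells were stimulated with diluted bursicon conditioned medium after compound addition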
# [29] = general cell-killing toxicity readout – plate reader, dry powder samples, cytotoxicity control for PAX8 inhibitor project, dose response (AID 743021); type: functional, cell-based
# [30] = blockade of melanocortin 4 receptor signaling – cell-based, plate reader, cherry pick, counter-screen for LGR2 antagonist project, dose response (AID 743444); type: functional;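 note: transfected HEK 293 cells stimulated with alpha-MSH peptide; potency of inhibitors of the alpha-MSH evoked signal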
# [31] = viability loss in HEK293 cells – cell-based, plate reader, cherry-picked samples, cytotoxicity control, dose response (AID 743446); type: functional
# [32] = tested on: Vero; test: mammalian cell viability reduction – secondary assay, cytotoxicity control for West Nile virus antiviral project, dose response (AID 1650); type: functional; conditions: Chlorocebus sabaeus
# [33] = target: T3, DNA repair and recombination protein RAD54-like (Homo sapiens, UniProt Q92698); test: RAD54 Holliday junction migration blockers – biochemical, fluorescence, cherry-picked samples, dose series, confirmation (AID 651657); type: functional
# T3 sequence (Q92698 whole entry): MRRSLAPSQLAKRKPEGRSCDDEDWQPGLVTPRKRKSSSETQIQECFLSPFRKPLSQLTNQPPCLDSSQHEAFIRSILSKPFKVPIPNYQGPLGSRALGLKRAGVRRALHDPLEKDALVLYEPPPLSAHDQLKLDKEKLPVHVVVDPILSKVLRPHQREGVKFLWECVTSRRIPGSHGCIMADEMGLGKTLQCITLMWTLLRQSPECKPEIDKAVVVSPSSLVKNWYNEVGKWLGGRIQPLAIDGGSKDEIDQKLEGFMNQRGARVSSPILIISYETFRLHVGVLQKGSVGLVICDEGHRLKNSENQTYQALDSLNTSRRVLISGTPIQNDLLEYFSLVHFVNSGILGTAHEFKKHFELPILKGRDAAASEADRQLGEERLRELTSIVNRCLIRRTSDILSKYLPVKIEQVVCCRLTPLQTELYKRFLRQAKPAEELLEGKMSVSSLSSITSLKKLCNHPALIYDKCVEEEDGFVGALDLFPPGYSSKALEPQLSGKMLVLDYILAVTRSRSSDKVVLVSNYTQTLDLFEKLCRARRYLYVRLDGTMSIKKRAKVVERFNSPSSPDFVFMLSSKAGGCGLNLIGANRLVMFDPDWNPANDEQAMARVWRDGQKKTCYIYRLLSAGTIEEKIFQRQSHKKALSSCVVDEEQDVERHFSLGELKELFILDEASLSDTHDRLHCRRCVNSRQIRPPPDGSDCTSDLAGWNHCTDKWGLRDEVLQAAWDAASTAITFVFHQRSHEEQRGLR
# [34] = target: T4, DNA repair protein RAD52 homolog (Homo sapiens, UniProt P43351); type: functional, biochemical
# T4 sequence (P43351 whole entry): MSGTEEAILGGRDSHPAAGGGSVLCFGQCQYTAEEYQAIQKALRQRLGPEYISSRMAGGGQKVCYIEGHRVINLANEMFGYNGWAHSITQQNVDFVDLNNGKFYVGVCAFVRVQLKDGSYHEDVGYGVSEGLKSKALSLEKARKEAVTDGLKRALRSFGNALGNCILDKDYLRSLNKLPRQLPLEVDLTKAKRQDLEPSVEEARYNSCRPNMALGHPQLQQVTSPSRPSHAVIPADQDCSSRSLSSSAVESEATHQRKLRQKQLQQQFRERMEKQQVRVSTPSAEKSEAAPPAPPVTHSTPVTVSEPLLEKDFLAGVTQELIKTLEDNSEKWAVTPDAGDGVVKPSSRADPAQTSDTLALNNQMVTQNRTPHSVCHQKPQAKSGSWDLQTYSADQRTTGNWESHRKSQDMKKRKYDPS
# Luciferin 4-monooxygenase, sequence (P08659 whole entry): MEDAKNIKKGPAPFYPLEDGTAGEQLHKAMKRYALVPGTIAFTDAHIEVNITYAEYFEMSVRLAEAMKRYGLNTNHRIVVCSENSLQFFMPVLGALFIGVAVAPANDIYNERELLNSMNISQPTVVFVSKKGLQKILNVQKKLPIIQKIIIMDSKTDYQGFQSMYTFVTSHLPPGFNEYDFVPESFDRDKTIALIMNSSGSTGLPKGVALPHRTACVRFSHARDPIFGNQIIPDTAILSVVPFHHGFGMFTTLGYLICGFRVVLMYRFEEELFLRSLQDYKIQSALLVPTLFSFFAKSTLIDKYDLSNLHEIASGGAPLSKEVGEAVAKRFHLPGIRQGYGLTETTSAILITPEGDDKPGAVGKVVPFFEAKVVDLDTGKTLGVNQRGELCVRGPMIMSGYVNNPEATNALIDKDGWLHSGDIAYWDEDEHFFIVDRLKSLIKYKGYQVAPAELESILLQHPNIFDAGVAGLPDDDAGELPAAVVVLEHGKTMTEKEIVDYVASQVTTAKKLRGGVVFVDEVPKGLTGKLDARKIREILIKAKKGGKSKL
# Paired box protein Pax-8, sequence (Q06710 whole entry): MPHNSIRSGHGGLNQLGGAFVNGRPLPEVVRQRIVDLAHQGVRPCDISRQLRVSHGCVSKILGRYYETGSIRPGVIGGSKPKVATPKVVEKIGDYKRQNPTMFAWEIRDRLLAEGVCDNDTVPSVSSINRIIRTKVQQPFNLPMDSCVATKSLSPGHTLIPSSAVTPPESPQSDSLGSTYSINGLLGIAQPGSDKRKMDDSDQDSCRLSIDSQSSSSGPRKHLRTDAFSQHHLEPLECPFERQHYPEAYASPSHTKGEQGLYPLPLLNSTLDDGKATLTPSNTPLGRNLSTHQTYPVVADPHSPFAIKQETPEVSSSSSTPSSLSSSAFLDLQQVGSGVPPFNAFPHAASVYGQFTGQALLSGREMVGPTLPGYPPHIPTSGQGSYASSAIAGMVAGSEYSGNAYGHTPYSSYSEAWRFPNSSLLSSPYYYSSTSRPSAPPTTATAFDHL
compound,measurement,setting,value
COc1ccc(-c2cc(-c3ccccc3)c(C#N)c(SCC(=O)O)n2)cc1,IC50,[1],1.35 µM (active)
C[C@H](CO)N1C[C@H](C)[C@@H](CN(C)C(=O)Nc2cccc3ccccc23)Oc2ccc(NC(=O)Nc3ccc(C(F)(F)F)cc3)cc2C1=O,AC50,[2],1.37 µM (active)
same,AC50,[3],1.81 µM (active)
same,AC50,[4],1.44 µM (active)
same,AC50,[5],1.21 µM (active)
O=C(Cn1cnc2ccccc21)N/N=C/c1cccs1,IC50,[6],> 29.9 µM (inactive)
same,EC50,[7],> 29.9 µM (inactive)
CNc1ccc(Br)cc(C(=O)/C=C/c2cccc(OC)c2OC)c1=O,CC50,[8],> 40 µM (active)
COc1ccc(NC(=O)c2cc([N+](=O)[O-])ccc2O)cc1,EC50,[9],11.6 µM (active)
same,EC50,[10],9.48 µM (active)
same,EC50,[11],5.17 µM (active)
same,EC50,[12],1.27 µM (active)
same,EC50,[13],0.129 µM (active)
same,EC50,[14],2.15 µM (active)
same,EC50,[15],> 150 µM (inconclusive)
same,EC50,[16],6.2 µM (active)
same,CC50,[17],26.5 µM (active)
same,CC50,[18],> 20 µM (active)
same,CC50,[19],> 20 µM (active)
same,AC50,[20],3.37 µM (active)
same,EC50,[21],> 54.7 µM (inactive)
same,EC50,[22],> 54.7 µM (inactive)
same,IC50,[23],> 89.1 µM (inactive)
same,EC50,[24],> 54.7 µM (inactive)
same,AC50,[25],5.39 µM (active)
same,AC50,[26],11.9 µM (active)
same,AC50,[27],9.22 µM (active)
same,AC50,[28],0.784 µM (active)
same,AC50,[29],12.4 µM (active)
same,AC50,[30],0.739 µM (active)
same,AC50,[31],6.28 µM (active)
N#C[C@@H]1[C@H](c2ccc(C#Cc3ccccc3F)cc2)[C@H](CO)N1C(=O)C1CCCCC1,AC50,[26],17.6 µM (active)
same,AC50,[27],2.67 µM (active)
same,AC50,[28],20 µM (active)
same,AC50,[30],27.5 µM (active)
same,AC50,[31],14.3 µM (active)
COC1CC(OC2CCC3(C)C(CCC4C3CCC3(C)C(C5=CC(=O)OC5)C(OC(C)=O)CC43O)C2)OC(C)C1OC1OC(COC2OC(CO)C(O)C(O)C2O)C(O)C(O)C1O (stereo unspecified),CC50,[32],4.14 µM (active)
COc1cc(-c2cnc3c(NC=O)cc(-c4cccc(C(=O)NCCN(C)C)c4)cn23)cc(OC)c1OC,AC50,[33],8.57 µM (active)
same,AC50,[34],3.07 µM (active)
COc1ccc(CCNC(=O)c2cc3c(=O)n4ccccc4nc3n(CCCN3CCOCC3)c2=N)cc1OC,AC50,[33],31 µM (active)
same,AC50,[34],11.5 µM (active)
